# Experimental data taken from patent US20210227854A1, “USE OF D-RIBOSE TO ENHANCE ADAPTATION TO PHYSICAL STRESS” (Bioenergy Life Science, Inc., priority 2014, published 2021).
# What was measured:
# Format in all cases: in vivo, human
# [1] = Blood glucose levels during exercise; details: mean (SD)
# Experimental: A high-intensity exercise protocol was designed as a double-blind, crossover study to assess the influence of D-Ribose adaptation to physical stress. Specifically, D-Ribose and a control (Dextrose) were administered on separate subjects at a dosage of ten grams per day (10 g/day). A variety of physiological parameters were measured in the subjects administered D-Ribose (DR) supplementation (i.e., the DR subjects) versus the subjects administered Dextrose (DEX) supplementation (i.e., the DEX subjects). To test D-ribose for adaptation, the twenty-six (26) adult subjects were further divided into two subgroups based on their fitness level (i.e., peak oxygen uptake (VO2 max) results. The first subgroup comprised subjects with higher VO2 max results (i.e., the “Fit Subgroup”) and the second subgroup comprised subjects with lower VO2 max results (i.e., the “Unfit Subgroup”). The Unfit Subgroup consisted of six (6) females and seven (7) males. The average age of the Unfit Subgroup was 27.7±3.4 years and the average peak VO2 of the Unfit Subgroup was 39.9±4.1 mL/kg/min. The Fit Subgroup consisted of four (4) females and nine (9) males. The average age of the Fit Subgroup was 27.6±3.5 year and the average peak VO2 of the Fit Subgroup was 52.2±4.3 mL/kg/min. Physiologic parameters were measured and hydration was provided to the subjects during the exercise session. The same protocol for testing and hydration protocol was followed for both DR subjects and DEX subjects. Blood samples were drawn from each subject via a venipuncture technique at the following time periods: • Ten (10) minutes before commencement of exercise; • Twenty (20) minutes after the commencement of and during exercise; • Forty (40) minutes after the commencement of and during exercise; • Sixty (60) minutes after the commencement of and during exercise; and • Twenty-four (24) hours after the conclusion of exercise (twenty-five (25) hours after the commencement of exercise). Blood glucose was measured at all of the above time points except at twenty-four (24) hours post-exercise. Creatine kinase and BUN levels were measured at the pre-exercise (−10 min.) point during the three (3) days of exercise and twenty-four (24) hours post-exercise following the third (last) exercise session. Heart rate was recorded using a Polar HR monitor. Blood glucose levels were measured using a Bayer glucose monitor. Blood lactate levels were measured by an AccuSport Lactate Analyzer. Creatine kinase and BUN were measured utilizing an Abaxis Piccolo analyzer. Power data from the time trial performance test was assessed with the Sports Medicine Industries (SMI) software package.
# [2] = Rating of perceived exertion (RPE) during exercise; details: for RPE (Borg 6-20 scale): 10 g/day, mean ± SD
# Experimental: A high-intensity exercise protocol was designed as a double-blind, crossover study to assess the influence of D-Ribose adaptation to physical stress. Specifically, D-Ribose and a control (Dextrose) were administered on separate subjects at a dosage of ten grams per day (10 g/day). A variety of physiological parameters were measured in the subjects administered D-Ribose (DR) supplementation (i.e., the DR subjects) versus the subjects administered Dextrose (DEX) supplementation (i.e., the DEX subjects). To test D-ribose for adaptation, the twenty-six (26) adult subjects were further divided into two subgroups based on their fitness level (i.e., peak oxygen uptake (VO2 max) results. The first subgroup comprised subjects with higher VO2 max results (i.e., the “Fit Subgroup”) and the second subgroup comprised subjects with lower VO2 max results (i.e., the “Unfit Subgroup”). The Unfit Subgroup consisted of six (6) females and seven (7) males. The average age of the Unfit Subgroup was 27.7±3.4 years and the average peak VO2 of the Unfit Subgroup was 39.9±4.1 mL/kg/min. The Fit Subgroup consisted of four (4) females and nine (9) males. The average age of the Fit Subgroup was 27.6±3.5 year and the average peak VO2 of the Fit Subgroup was 52.2±4.3 mL/kg/min. The protocol of the double-blind crossover study involved an initial baseline assessment, followed by two separate day assessments after consuming either a DR or DEX supplement. Each exercise session entailed measurements of creatine kinase (CK), blood urea nitrogen (BUN), glucose, heart rate (HR), rate of perceived exertion (RPE), and power output (PO) measurements. […] The Likert scale (0-10 points) was used to subjectively assess quadriceps muscle soreness, overall fatigue, appetite, perceived performance, and sleep quality. These scales were completed prior to and following each exercise session.
# [3] = Heart rate (HR) during exercise sessions; details: for HR (bpm): 10 g/day, mean ± SD
# Experimental: A high-intensity exercise protocol was designed as a double-blind, crossover study to assess the influence of D-Ribose adaptation to physical stress. Specifically, D-Ribose and a control (Dextrose) were administered on separate subjects at a dosage of ten grams per day (10 g/day). A variety of physiological parameters were measured in the subjects administered D-Ribose (DR) supplementation (i.e., the DR subjects) versus the subjects administered Dextrose (DEX) supplementation (i.e., the DEX subjects). To test D-ribose for adaptation, the twenty-six (26) adult subjects were further divided into two subgroups based on their fitness level (i.e., peak oxygen uptake (VO2 max) results. The first subgroup comprised subjects with higher VO2 max results (i.e., the “Fit Subgroup”) and the second subgroup comprised subjects with lower VO2 max results (i.e., the “Unfit Subgroup”). The Unfit Subgroup consisted of six (6) females and seven (7) males. The average age of the Unfit Subgroup was 27.7±3.4 years and the average peak VO2 of the Unfit Subgroup was 39.9±4.1 mL/kg/min. The Fit Subgroup consisted of four (4) females and nine (9) males. The average age of the Fit Subgroup was 27.6±3.5 year and the average peak VO2 of the Fit Subgroup was 52.2±4.3 mL/kg/min. The protocol of the double-blind crossover study involved an initial baseline assessment, followed by two separate day assessments after consuming either a DR or DEX supplement. Each exercise session entailed measurements of creatine kinase (CK), blood urea nitrogen (BUN), glucose, heart rate (HR), rate of perceived exertion (RPE), and power output (PO) measurements. Each exercise session consisted of six (6) ten-minute intervals of exercise on a cycle ergometer. During each ten-minute interval, the subject cycled for eight (8) minutes at a workload of approximately 60% of the subject's VO2 max, then immediately cycled for an additional two (2) minutes at a workload of approximately 80% VO2 max (approximately one workload above the subject's calculated lactate threshold). Cadence and power output were monitored at ten-minute intervals during each exercise session. At the end of the sixty-minute exercise session, each subject completed a two-minute performance task (time trial). This performance task required the subject to produce as much power as possible during the two-minute interval. Peak power, average power, and percent decline were assessed during this two-minute task trial. Workload for performance task was set at five percent (5%) of the subject's body weight. Heart rate was recorded using a Polar HR monitor. Blood glucose levels were measured using a Bayer glucose monitor. Blood lactate levels were measured by an AccuSport Lactate Analyzer. Creatine kinase and BUN were measured utilizing an Abaxis Piccolo analyzer. Power data from the time trial performance test was assessed with the Sports Medicine Industries (SMI) software package.
SMILES,"Blood glucose level during exercise ([1]; Fit Subgroup, 19.5)","Blood glucose level during exercise ([1]; Fit Subgroup, 39.5)","Blood glucose level during exercise ([1]; Fit Subgroup, 59.5)","Blood glucose level during exercise ([1]; Unfit Subgroup, 19.5)","Blood glucose level during exercise ([1]; Unfit Subgroup, 39.5)","Blood glucose level during exercise ([1]; Unfit Subgroup, 59.5)",RPE ([2]; Fit Subgroup),RPE (Borg 6-20 scale) ([2]; Fit Subgroup),RPE (Borg 6-20 scale) ([2]; Unfit Subgroup),"RPE ([2]; Unfit Subgroup, p=0.003)",Average HR ([3]; Fit Subgroup),HR (bpm) ([3]; Fit Subgroup),Average HR ([3]; Unfit Subgroup),HR (bpm) ([3]; Unfit Subgroup),"Average rate of perceived exertion, DEX subjects versus DR subjects (FIG. 1) ([2]; all measured points of the exercise sessions)"
"O=C[C@H](O)[C@H](O)[C@H](O)CO [DR, D-Ribose]",3.8 (0.5) mM/L,4.0 (0.5) mM/L,3.9 (0.5) mM/L,4.0 (0.6) mM/L,4.0 (0.6) mM/L,4.1 (0.7) mM/L,14±2,13.6 ± 1.8,13.1 ± 1.6,13±2,153±12 bpm,152.6 ± 11.9 bpm,152±20 bpm,151.5 ± 19.4 bpm,–
"O=C[C@H](O)[C@@H](O)[C@H](O)[C@H](O)CO [DEX, Dextrose, reference compound]",4.0 (0.6) mM/L,4.1 (0.7) mM/L,4.0 (0.6) mM/L,4.0 (0.5) mM/L,4.0 (0.5) mM/L,3.9 (0.6) mM/L,14±2,13.9 ± 1.6,13.5 ± 1.5,14±2,153±12 bpm,152.4 ± 11.7 bpm,153±17 bpm,152.0 ± 19.5 bpm,greater
